Assay results: ChEMBL document CHEMBL5338751, “Discovery of the First-in-Class Intestinal Restricted FXR and FABP1 Dual Modulator ZLY28 for the Treatment of Nonalcoholic Fatty Liver Disease” (J Med Chem, 2023)
The source made the active and inactive calls. The calls are words filed in the database; no cut-off is given here.

Key:
[1] = molecular target: Retinoic acid receptor alpha (Homo sapiens, UniProt P10276); assay: Activation of Gal-DBD and NHRLBD fused RARalpha (unknown origin) transfected in African green monkey CV-1 cells by luciferase reporter assay; format: cell-based
Chain of Retinoic acid receptor alpha (P10276 whole entry, the tested form may be a part): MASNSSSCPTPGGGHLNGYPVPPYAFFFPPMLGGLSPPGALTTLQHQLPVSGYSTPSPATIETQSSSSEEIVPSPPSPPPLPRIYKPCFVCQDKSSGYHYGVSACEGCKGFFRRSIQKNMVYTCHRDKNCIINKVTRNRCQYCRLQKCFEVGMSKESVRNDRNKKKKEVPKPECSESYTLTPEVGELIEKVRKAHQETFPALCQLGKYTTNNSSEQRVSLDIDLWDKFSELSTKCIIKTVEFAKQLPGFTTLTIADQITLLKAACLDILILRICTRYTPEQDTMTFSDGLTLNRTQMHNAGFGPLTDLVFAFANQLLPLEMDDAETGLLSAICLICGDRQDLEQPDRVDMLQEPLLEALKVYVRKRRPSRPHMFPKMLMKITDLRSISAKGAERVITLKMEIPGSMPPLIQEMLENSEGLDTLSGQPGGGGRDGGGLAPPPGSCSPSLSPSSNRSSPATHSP

[2] = Drug concentration in C57BL/6 mouse plasma at 20 mg/kg, po administered for 5 days and measured after 1 hr post final dose by LC-MS analysis; format: ADME, organism-based; conditions: time 5 day
[3] = Metabolic stability in human liver microsomes assessed as parent compound remaining incubated for 1 hr by LC-MS analysis; format: ADME, Microsome; conditions: read-out: Stability
[4] = molecular target: Estrogen receptor beta (Homo sapiens, UniProt Q92731); assay: Activation of Gal-DBD and NHRLBD fused ERbeta (unknown origin) transfected in African green monkey CV-1 cells by luciferase reporter assay; format: cell-based
Chain of Estrogen receptor beta (Q92731 whole entry, the tested form may be a part): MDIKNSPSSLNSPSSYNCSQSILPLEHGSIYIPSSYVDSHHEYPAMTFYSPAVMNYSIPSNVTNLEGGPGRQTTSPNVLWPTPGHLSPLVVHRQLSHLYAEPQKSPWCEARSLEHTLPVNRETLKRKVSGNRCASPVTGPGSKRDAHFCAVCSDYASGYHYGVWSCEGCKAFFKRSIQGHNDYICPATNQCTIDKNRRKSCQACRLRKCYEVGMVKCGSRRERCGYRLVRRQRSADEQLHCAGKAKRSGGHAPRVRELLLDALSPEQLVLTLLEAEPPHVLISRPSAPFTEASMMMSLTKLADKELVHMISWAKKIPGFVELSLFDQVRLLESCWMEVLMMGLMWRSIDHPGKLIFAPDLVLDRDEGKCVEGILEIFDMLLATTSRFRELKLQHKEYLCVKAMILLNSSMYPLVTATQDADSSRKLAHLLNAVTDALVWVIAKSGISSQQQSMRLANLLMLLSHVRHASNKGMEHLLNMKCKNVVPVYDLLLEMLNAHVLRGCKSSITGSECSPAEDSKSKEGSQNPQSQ

[5] = molecular target: Fatty acid-binding protein, adipocyte (Homo sapiens, UniProt P15090); assay: Displacement of 8-anilino-1-naphthalene-sulfonic acid from FABP4 (unknown origin) incubated for 3 mins by fluorescence based assay
Chain of Fatty acid-binding protein, adipocyte (P15090 whole entry): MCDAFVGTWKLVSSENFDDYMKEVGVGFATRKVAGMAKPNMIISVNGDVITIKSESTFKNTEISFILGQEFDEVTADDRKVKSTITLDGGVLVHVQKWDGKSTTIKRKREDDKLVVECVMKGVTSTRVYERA

[6] = molecular target: T1, Bile acid receptor (Mus musculus) (UniProt Q60641); assay: In vivo activation of FXR pathway in western diet and CCl4-induced nonalcoholic steatohepatitis C57BL/6 mouse model assessed as upregulation of OST-beta gene expression in ileum at 20 mg/kg, po administered for 12 weeks starting from week 8 and change in dose for every 5 days by RT-PCR analysis; format: functional, organism-based; conditions: time 4.0 weeks
T1 sequence (whole entry): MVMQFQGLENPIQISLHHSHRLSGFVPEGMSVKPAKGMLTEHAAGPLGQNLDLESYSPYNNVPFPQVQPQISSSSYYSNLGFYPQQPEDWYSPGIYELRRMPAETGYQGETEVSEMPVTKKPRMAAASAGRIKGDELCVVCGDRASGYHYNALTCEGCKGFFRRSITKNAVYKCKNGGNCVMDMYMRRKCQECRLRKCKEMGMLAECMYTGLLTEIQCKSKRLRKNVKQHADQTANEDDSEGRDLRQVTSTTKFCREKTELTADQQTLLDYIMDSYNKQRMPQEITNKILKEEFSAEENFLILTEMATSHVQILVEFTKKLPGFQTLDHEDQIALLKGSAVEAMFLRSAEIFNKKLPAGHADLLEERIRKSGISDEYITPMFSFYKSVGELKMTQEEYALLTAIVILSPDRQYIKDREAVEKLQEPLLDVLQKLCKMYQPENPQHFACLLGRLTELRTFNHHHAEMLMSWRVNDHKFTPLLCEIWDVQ

[7] = test system: Mus musculus; assay: Antioxidant activity in western diet and CCl4-induced nonalcoholic steatohepatitis C57BL/6 mouse model assessed as increase in SOD level at 20 mg/kg, po administered for 12 weeks starting from week 8 and change in dose for every 5 days; format: functional, organism-based; conditions: time 4.0 weeks
[8] = molecular target: T2, Fatty acid-binding protein, liver (Homo sapiens) (UniProt P07148); assay: Displacement of 8-anilino-1-naphthalene-sulfonic acid from FABP1 (unknown origin) at 10 uM incubated for 3 mins by fluorescence based assay relative to control
T2 sequence (whole entry): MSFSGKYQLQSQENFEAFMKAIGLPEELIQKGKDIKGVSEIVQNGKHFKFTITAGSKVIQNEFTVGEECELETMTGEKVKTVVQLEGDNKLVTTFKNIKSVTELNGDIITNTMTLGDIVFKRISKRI

[9] = Subacute toxicity in ICR mouse assessed as changes in serum AST level at 500 mg/kg/day, po administered for 14 days; format: organism-based; conditions: in vivo, 336 h, time 14 day
[10] = Ratio of drug level in ileum to plasma in C57BL/6 mouse at 20 mg/kg, po administered for 5 days and measured after 1 hr post final dose by LC-MS analysis
[11] = molecular target: Retinoic acid receptor gamma (Homo sapiens, UniProt P13631); assay: Activation of Gal-DBD and NHRLBD fused RARgamma (unknown origin) transfected in African green monkey CV-1 cells by luciferase reporter assay; format: cell-based
Chain of Retinoic acid receptor gamma (P13631 whole entry, the tested form may be a part): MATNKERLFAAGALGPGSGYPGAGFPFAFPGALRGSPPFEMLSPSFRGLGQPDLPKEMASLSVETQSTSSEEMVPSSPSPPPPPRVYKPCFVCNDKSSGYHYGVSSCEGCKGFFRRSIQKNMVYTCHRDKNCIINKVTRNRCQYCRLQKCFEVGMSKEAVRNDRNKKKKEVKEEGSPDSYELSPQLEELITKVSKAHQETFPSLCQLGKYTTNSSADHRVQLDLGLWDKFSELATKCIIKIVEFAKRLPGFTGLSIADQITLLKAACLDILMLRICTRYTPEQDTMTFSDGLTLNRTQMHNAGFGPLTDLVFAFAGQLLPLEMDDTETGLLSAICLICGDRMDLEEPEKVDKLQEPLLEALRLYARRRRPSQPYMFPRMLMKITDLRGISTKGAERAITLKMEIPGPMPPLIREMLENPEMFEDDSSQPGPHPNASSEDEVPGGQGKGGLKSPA

[12] = test system: Mus musculus; assay: Antioxidant activity in western diet and CCl4-induced nonalcoholic steatohepatitis C57BL/6 mouse model assessed as increase in glutathione peroxidase level at 20 mg/kg, po administered for 12 weeks starting from week 8 and change in dose for every 5 days; format: functional, organism-based; conditions: time 4.0 weeks
[13] = molecular target: T3, Bile acid receptor (Homo sapiens, UniProt Q96RI1); assay: Agonist activity at FXR-LBD (unknown origin) using fluorescein-coactivator peptide incubated for 3 hrs by TR-FRET assay
T3 sequence (Q96RI1 whole entry): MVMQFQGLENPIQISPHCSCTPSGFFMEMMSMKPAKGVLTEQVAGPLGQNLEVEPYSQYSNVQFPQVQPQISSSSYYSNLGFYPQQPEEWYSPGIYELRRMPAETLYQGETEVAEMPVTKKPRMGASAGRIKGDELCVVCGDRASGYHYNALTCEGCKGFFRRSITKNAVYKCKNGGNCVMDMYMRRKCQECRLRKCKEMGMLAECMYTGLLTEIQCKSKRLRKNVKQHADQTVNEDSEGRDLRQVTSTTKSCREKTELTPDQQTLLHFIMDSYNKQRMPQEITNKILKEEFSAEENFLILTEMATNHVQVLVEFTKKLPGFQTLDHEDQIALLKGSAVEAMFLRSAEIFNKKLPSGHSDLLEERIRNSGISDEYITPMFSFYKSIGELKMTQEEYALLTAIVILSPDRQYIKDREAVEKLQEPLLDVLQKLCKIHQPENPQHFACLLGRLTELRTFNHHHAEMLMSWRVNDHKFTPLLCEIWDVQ

[14] = test system: Mus musculus; assay: Anti-NASH activity in western diet and CCl4-induced nonalcoholic steatohepatitis C57BL/6 mouse assessed as downregulation of TNFalpha expression level at 20 mg/kg, po administered for 12 weeks starting from week 8 and change in dose for every 5 days by ELISA; format: functional, organism-based; conditions: time 4.0 weeks
[15] = molecular target: T4, Peroxisome proliferator-activated receptor alpha (Homo sapiens, UniProt Q07869); assay: Agonist activity at pBIND-PPARalpha (unknown origin) transfected in HepG2 cells incubated for 18 hrs by renilla/firefly based dual-glo luciferase assay; format: cell-based
T4 sequence (Q07869 whole entry): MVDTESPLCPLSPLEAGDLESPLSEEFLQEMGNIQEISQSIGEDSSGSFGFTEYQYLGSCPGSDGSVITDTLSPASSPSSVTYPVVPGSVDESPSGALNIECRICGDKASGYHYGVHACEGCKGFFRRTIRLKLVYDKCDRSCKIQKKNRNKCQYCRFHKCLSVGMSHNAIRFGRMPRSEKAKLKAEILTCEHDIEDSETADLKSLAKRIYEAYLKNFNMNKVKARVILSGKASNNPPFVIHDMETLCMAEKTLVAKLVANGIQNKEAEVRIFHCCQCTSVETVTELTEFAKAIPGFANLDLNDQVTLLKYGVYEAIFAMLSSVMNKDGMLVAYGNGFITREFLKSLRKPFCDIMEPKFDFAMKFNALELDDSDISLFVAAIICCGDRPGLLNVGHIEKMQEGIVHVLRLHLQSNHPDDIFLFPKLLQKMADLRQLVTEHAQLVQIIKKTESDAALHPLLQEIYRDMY

[16] = Subacute toxicity in ICR mouse assessed as changes in food intake at 500 mg/kg/day, po administered for 14 days; format: organism-based; conditions: in vivo, 336 h, time 14 day
[17] = test system: Mus musculus; assay: Anti-NASH activity in western diet and CCl4-induced nonalcoholic steatohepatitis C57BL/6 mouse assessed as reduction in IL-1beta level at 20 mg/kg, po administered for 12 weeks starting from week 8 and change in dose for every 5 days by ELISA; format: functional, organism-based; conditions: time 4.0 weeks

SMILES: O=C(O)C1(c2cccc(-c3ccc(OCc4c(-c5c(Cl)cccc5Cl)noc4C4CC4)cc3)c2)CC1
- EC50 [1]: > 10 µM
- concentration at 120 h [2]: 29 ng/mL
- remaining at 1 h [3]: 71.6%
- EC50 [4]: > 10 µM
- IC50 [5]: 6.3 µM
- Activity [6]: Active
- Activity [7]: Active
- inhibition [8]: 83.6%
- Activity [9]: Non-Toxic
- Kp at 120 h [10]: 104
- EC50 [11]: > 10 µM
- Activity [12]: Active
- EC50 [13]: 0.143 µM
- Activity [14]: Active
- EC50 [15]: > 10 µM
- Activity [16]: Non-Toxic
- Activity [17]: Active
